The format of data set [1] is in vitro ADME, human. As to conditions: preliminary analysis.
Data set [2] can be described thus: Stability of cyanidin chloride, PCA and PGA in saliva. It counts as in vitro ADME, human.
The format of data set [3] is in vitro ADME, human. The settings on record: individual glucosides in RdGrp extract, chlorhexidine rinse.
Data set [4] can be described thus: Stability of cyanidin chloride in acidified water. It counts as physicochemical.

Where only a bound is given, the exact number is not on record here.

As to `OC[C@H]1O[C@@H](Oc2cc3c(O)cc(O)cc3[o+]c2-c2ccc(O)c(O)c2)[C@H](O)[C@@H](O)[C@@H]1O` [Cy-3-glu, Cyanidin-3-O-glucoside], in data set [1], the “Chalcone glucosides of Cy as share of the original amount incubated in saliva ex vivo” value is no more than 30%.
With `O=Cc1c(O)cc(O)cc1O` [PGA, phloroglucinol aldehyde], the “Recovery after incubation in intact saliva” value in data set [2] (25 nmol/mL, 37 °C, 60 min) is on record as 43%.
As to `COc1cc(-c2[o+]c3cc(O)cc(O)c3cc2O[C@@H]2O[C@H](CO)[C@@H](O)[C@H](O)[C@H]2O)ccc1O` [Pn, Peonidin-3-O-glucoside], the “Decrease of degradation in saliva after antibacterial treatment” value in data set [3] is recorded as 50%.
The same measure, in the same setting: as for `COc1cc(-c2[o+]c3cc(O)cc(O)c3cc2O[C@@H]2O[C@H](CO)[C@@H](O)[C@H](O)[C@H]2O)cc(O)c1O` [Pt-3-glu, Petunidin-3-O-glucoside], the figure is 10%.
`O=C(O)c1ccc(O)c(O)c1` [PCA, protocatechuic acid] showed a recovery at 60 min, 25 nmol/mL in data set [2] (human) of 90%.
On to `COc1cc(-c2[o+]c3cc(O)cc(O)c3cc2O[C@@H]2O[C@H](CO)[C@@H](O)[C@H](O)[C@H]2O)cc(OC)c1O` [Mv, Malvidin-3-O-glucoside], for which, in data set [3], the “Decrease of degradation in saliva after antibacterial treatment” value is 50%.
Same read-out and setting: to `OC[C@H]1O[C@@H](Oc2cc3c(O)cc(O)cc3[o+]c2-c2cc(O)c(O)c(O)c2)[C@H](O)[C@@H](O)[C@@H]1O` [Dp, Delphinidin-3-O-glucoside] belongs 30%.
Consider `Oc1cc(O)c2cc(O)c(-c3ccc(O)c(O)c3)[o+]c2c1` [CyCl, cyanidin chloride], for which, in data set [2] (human, 0 min, 25 nmol/L), the “Cyanidin aglycone degraded upon addition to intact saliva” value is recorded as greater than 90%. Besides, the “PCA as share of the degraded CyCl in saliva” value in data set [2] (human, 0 min, 25 nmol/mL) was 15.3%; in data set [2] (human, 60 min, 25 nmol/mL), 9.6%. The “CyCl recovered immediately after addition to acidified water” value in data set [4] (0 min) is recorded as “Greater than 86%”. In data set [4] (60 min), the “CyCl lost after incubation in acidified water” value is recorded as “greater than 88%”.

The record behind these values is article PMC3839579 (Food chemistry, 2012).
